Assay results from ChEMBL document CHEMBL1201862, “PubChem BioAssay data set” (2004).
Active and inactive are the calls of the source.

What was measured:
[1] = biological target: T1, G-protein coupled receptor 35 (Homo sapiens, UniProt Q9HC97); assay: SAR analysis of Agonists of the GPR35 Receptor using an Image-Based Assay - Set 2. [Related pubchem assays (depositor defined):AID2013, AID2026]; type: functional
[2] = biological target: T1, G-protein coupled receptor 35; assay: SAR analysis of Antagonists of the GPR35 Receptor using an Image-Based Assay - Set 3. [Related pubchem assays (depositor defined):AID2013, AID2026]; type: functional
[3] = biological target: G-protein coupled receptor 55 (Homo sapiens, UniProt Q9Y2T6); assay: inhibition of LPI-stimulated GPR55 beta-arrestin translocation – imaging, U2OS, beta-arrestin-GFP, LPI agonist, primary screen (AID 2013); type: functional;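 further: antagonist potency measured as reduced agonist-driven arrestin aggregation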
Protein RecA = biological target: T2, Protein RecA (Mycobacterium tuberculosis, UniProt P9WHJ3); assay: Fluorescence Cell-Free Homogeneous Dose Retest to Identify Inhibitors of RecA-Intein Splicing Activity. [Related pubchem assays (depositor defined):AID2097, AID2223, AID489010, AID492950]; type: functional
T2 sequence (P9WHJ3 whole entry): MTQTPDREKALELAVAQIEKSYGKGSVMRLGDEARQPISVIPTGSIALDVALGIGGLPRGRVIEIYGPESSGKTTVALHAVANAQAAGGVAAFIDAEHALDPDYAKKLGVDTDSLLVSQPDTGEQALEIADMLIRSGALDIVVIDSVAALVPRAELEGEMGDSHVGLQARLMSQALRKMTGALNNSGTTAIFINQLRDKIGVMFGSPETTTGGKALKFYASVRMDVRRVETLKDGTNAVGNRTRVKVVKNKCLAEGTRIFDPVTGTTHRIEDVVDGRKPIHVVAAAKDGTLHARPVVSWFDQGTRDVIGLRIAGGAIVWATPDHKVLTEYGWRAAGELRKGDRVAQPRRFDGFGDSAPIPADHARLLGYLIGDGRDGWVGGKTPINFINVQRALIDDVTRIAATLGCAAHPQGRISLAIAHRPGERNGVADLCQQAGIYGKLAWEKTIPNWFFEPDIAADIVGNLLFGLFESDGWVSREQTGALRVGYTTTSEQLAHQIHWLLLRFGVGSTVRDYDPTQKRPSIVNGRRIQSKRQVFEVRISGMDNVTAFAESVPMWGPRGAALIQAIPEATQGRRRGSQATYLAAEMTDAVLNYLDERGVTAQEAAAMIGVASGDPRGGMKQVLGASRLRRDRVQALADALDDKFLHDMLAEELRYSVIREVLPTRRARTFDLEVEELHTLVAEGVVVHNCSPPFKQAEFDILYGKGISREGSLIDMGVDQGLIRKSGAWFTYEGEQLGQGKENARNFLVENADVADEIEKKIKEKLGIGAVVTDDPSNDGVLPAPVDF

Cannabinoid receptor 1 [4] = biological target: T3, Cannabinoid receptor 1 (Homo sapiens, UniProt P21554); assay: SAR analysis of antagonists of the Cannabinoid Receptor 1 using an Image-Based Assay - Set 2. [Related pubchem assays (depositor defined):AID2013, AID2026]; type: functional
Cannabinoid receptor 2 [5] = biological target: T4, Cannabinoid receptor 2 (Homo sapiens, UniProt P34972); assay: SAR analysis of antagonists of the Cannabinoid Receptor 2 using an Image-Based Assay. [Related pubchem assays (depositor defined):AID2013, AID2026]; type: functional
Cannabinoid receptor 2 [6] = biological target: T4, Cannabinoid receptor 2; assay: SAR analysis of agonists of the Cannabinoid Receptor 2 using an Image-Based Assay. [Related pubchem assays (depositor defined):AID2013, AID2026]; type: functional
Cannabinoid receptor 1 [7] = biological target: T3, Cannabinoid receptor 1; assay: SAR analysis of agonists of the Cannabinoid Receptor 1 using an Image-Based Assay - Set 2. [Related pubchem assays (depositor defined):AID2013, AID2026]; type: functional
[8] = biological target: T5, Replicative DNA helicase DnaB (Mycobacterium tuberculosis, UniProt P9WMR3); assay: DnaB intein splicing inhibitors, dose response, biochemical, cell-free fluorescence (AID 449749); type: functional
T5 sequence (P9WMR3 whole entry): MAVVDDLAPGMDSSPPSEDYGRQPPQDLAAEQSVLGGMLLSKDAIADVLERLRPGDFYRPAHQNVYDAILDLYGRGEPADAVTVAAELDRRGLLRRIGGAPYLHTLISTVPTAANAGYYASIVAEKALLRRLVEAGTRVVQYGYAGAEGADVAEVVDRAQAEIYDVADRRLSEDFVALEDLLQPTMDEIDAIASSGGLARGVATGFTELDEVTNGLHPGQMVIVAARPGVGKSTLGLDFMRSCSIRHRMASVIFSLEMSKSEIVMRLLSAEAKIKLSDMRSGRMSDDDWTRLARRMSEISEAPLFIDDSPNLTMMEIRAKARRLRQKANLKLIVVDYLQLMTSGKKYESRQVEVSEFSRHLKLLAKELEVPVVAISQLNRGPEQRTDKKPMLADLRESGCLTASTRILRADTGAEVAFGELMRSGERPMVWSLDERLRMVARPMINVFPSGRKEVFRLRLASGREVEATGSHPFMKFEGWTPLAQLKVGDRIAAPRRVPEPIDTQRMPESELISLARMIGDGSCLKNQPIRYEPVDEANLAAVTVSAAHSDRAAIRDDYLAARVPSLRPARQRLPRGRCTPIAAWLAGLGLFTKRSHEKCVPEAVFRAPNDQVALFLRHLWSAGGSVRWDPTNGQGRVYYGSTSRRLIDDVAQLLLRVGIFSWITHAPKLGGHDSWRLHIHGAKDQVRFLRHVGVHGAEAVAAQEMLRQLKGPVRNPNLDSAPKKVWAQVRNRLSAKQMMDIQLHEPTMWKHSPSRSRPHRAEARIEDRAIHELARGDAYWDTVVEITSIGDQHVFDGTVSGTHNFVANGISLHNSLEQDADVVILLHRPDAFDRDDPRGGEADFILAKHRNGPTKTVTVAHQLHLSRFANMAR

[9] = biological target: Lysine-specific demethylase 4C (Homo sapiens, UniProt Q9H3R0); assay: inhibition of JMJD2C H3K9me3 demethylation – biochemical, DELFIA europium, cherry-picked samples, dose response (AID 488835); type: functional
[10] = biological target: T6, RNA-binding protein pos-1 (Caenorhabditis elegans, UniProt G5EF15); assay: disruptors of C. elegans POS-1 RNA interaction – biochemical, fluorescence polarization, dose response (AID 1964);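 further: purified POS-1 fused to maltose binding protein made in E. coli; potency of compounds blocking POS-1 binding to fluorescent RNA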
T6 sequence (G5EF15 whole entry): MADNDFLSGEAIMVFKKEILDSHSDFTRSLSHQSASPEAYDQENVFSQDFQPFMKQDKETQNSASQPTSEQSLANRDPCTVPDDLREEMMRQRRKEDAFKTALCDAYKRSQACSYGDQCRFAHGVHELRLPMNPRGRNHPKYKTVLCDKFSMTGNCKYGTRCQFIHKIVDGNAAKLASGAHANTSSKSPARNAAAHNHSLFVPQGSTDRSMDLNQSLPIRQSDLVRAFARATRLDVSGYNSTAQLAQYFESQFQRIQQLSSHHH

[11] = biological target: T7, Zinc finger protein mex-5 (Caenorhabditis elegans, UniProt Q9XUB2); assay: potency of MEX-5 RNA-binding blockers – biochemical, C. elegans, fluorescence polarization, dose response (AID 1960)
T7 sequence (Q9XUB2 whole entry): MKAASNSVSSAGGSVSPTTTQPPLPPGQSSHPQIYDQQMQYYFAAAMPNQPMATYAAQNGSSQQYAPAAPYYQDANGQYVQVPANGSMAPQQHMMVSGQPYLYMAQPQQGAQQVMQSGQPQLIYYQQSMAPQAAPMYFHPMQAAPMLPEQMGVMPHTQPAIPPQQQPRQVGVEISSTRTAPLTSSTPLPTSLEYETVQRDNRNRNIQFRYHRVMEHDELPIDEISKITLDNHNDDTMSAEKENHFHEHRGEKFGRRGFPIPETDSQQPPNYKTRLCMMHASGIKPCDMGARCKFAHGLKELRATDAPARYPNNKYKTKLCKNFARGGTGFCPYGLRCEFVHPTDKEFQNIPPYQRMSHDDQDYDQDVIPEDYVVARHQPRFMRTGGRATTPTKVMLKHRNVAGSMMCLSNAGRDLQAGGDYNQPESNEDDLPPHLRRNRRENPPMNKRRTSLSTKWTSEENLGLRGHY

[12] = viability of PTEN-deleted HCT116 cells – cell-based, HCT116 PTEN knockout, dose response (AID 1047); type: functional;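 further: HCT116 colon tumor cells with PTEN knocked out; cells exposed to compound for 60 hours before readout; potency for loss of cell viability measured by luminescence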
[13] = viability of HCT116 lacking mutant beta-catenin – cell-based, human colon tumor, dose response (AID 1045); type: functional;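 further: HCT116 colon tumor cells with beta catenin knocked out; cells exposed to compound for 60 hours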
Cytochrome P450 2C19 = Cytochrome P450 2C19 (Homo sapiens, UniProt P33261); assay: Cytochrome panel assay with activity outcomes. Panel member name: p450-cyp2c19 Compounds with AC50 equal or less than 10 uM are considered active; type: functional; conditions: read-out: AC50
Cytochrome P450 3A4 = Cytochrome P450 3A4 (Homo sapiens, UniProt P08684);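 further: CYP3A4 tested as one member of a cytochrome P450 panel screen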
[14] = biological target: Sphingosine 1-phosphate receptor 4 (Homo sapiens, UniProt O95977); assay: Fluorescence dose response cell-based high throughput screening assay for agonists of the Sphingosine 1-Phosphate Receptor 4 (S1P4). [Related pubchem assays: 1509 (Primary screen.), 1523 (Confirmation screen in triplicates.)]; type: functional
[15] = system: Streptococcus sp. 'group A'; assay: Streptococcus pyogenes SK(-)GAS viability under kanamycin – luminescence, BacTiterGlo, confirmation, counter-screen for streptokinase expression inhibitor project, dose response (AID 1900); type: functional, organism-based
Streptococcus = assay: GAS UMAA2166 growth inhibition – luminescence, BacTiterGlo, counter-screen for streptokinase expression inhibitor project, dose response (AID 1915); type: functional, organism-based;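 further: potency for reduction of bacterial viability or growth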
Streptokinase A = biological target: T8, Streptokinase A (Streptococcus pyogenes serotype M1, UniProt P10520); assay: viability-normalized secreted streptokinase activity reduction – plasminogen activation absorbance, OD405, dose response (AID 1914); type: functional, Streptococcus pyogenes M1 GAS;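 further: secreted streptokinase activity via plasminogen activation per viability signal from cell pellet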
T8 sequence (P10520 whole entry): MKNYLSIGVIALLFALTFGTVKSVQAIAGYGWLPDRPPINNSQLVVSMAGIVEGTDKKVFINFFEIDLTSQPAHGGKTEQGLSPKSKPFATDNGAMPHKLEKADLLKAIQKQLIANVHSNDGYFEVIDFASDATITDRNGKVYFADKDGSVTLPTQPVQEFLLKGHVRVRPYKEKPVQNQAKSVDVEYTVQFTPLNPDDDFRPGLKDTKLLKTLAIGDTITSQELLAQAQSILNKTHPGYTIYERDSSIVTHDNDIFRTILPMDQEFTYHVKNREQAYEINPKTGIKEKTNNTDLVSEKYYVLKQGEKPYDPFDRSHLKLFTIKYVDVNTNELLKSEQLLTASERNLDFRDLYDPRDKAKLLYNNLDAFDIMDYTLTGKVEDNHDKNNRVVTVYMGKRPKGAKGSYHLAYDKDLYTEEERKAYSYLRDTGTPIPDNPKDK

[16] = biological target: Sphingosine 1-phosphate receptor 1 (Homo sapiens, UniProt P21453); assay: Fluorescence-based counterscreen assay for S1P4 agonists: Cell-based dose response high throughput screening assay to identify agonists of the Sphingosine 1-Phosphate Receptor 1 (S1P1). [Related pubchem assays (depositor defined):AID1509, AID1523, AID1801, AID463107, AID463118, AID463119, AID463122, AID463123, AID463129, AID463225, AID504400, AID504460]; type: functional
Sphingosine 1-phosphate receptor 1, sequence (P21453 whole entry): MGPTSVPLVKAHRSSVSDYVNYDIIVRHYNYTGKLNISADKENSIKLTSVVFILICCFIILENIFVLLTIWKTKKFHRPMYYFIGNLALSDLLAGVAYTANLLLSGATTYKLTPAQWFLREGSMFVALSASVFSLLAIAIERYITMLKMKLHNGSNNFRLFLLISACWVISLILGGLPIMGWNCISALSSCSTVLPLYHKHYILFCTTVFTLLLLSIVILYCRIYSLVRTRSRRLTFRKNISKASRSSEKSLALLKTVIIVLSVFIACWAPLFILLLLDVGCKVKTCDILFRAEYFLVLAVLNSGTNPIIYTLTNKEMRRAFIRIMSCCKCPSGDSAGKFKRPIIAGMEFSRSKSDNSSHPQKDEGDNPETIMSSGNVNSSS

T4 sequence (P34972 whole entry): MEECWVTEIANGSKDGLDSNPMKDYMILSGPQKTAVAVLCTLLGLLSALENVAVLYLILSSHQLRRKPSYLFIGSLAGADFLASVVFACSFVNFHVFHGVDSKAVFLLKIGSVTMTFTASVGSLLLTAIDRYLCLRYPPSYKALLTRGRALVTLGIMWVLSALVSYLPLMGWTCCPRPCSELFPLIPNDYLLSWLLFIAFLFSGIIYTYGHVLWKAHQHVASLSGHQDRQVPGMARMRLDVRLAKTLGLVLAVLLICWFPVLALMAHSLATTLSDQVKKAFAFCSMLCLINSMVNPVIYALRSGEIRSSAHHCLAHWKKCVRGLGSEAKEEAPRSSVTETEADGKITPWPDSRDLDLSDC
T3 sequence (P21554 whole entry): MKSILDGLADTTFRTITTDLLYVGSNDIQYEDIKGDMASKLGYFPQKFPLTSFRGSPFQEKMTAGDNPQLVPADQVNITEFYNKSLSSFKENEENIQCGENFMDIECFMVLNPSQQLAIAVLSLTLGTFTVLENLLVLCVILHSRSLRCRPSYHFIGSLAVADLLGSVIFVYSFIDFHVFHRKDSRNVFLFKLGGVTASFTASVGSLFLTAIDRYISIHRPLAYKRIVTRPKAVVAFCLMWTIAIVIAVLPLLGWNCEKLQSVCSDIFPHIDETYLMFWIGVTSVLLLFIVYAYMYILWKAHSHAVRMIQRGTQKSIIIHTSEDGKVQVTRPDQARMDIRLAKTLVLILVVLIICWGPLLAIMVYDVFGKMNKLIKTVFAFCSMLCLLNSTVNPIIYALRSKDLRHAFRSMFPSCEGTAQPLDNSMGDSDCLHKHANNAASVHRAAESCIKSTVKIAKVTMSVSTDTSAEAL
T1 sequence (Q9HC97 whole entry): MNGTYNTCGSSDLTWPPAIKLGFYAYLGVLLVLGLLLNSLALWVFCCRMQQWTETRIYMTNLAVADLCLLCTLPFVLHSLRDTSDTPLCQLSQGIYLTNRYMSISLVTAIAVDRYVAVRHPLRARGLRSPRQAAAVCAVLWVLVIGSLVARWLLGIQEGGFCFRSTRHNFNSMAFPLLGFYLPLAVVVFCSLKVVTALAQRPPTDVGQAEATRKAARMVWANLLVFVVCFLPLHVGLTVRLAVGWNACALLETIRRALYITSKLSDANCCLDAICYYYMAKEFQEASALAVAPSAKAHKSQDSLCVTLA
Cytochrome P450 3A4, sequence (P08684 whole entry): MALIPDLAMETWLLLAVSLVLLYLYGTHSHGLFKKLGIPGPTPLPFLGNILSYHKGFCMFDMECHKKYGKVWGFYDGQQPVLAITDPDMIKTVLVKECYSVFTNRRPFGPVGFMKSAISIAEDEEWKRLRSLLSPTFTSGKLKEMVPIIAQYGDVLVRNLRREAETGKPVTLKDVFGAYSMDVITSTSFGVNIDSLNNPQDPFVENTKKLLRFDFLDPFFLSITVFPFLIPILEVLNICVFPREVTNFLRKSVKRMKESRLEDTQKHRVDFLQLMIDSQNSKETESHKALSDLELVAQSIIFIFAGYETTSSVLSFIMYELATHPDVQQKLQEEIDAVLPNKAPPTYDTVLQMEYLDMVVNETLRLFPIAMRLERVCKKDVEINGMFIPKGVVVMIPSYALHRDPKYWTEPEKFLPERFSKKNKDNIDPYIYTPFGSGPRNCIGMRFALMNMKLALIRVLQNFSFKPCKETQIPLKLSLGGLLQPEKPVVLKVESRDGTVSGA
Sphingosine 1-phosphate receptor 4, sequence (O95977 whole entry): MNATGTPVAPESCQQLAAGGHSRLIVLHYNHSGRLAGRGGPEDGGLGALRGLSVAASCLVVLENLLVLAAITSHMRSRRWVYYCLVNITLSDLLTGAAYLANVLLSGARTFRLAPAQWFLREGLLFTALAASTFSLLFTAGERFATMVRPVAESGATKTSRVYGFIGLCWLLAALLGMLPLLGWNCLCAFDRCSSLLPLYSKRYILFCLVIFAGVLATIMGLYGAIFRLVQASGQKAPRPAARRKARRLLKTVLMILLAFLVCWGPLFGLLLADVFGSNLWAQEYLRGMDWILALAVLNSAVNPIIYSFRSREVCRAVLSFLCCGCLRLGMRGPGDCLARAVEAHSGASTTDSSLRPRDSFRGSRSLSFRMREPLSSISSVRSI
G-protein coupled receptor 55, sequence (Q9Y2T6 whole entry): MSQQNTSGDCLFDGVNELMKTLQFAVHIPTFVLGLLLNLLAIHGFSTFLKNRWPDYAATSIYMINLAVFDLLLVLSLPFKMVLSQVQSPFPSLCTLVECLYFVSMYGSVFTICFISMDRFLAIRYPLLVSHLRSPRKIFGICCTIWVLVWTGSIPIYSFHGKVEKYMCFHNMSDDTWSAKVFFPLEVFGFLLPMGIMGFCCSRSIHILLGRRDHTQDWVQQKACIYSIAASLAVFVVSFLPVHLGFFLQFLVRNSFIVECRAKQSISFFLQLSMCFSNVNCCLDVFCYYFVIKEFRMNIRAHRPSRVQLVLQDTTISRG
Lysine-specific demethylase 4C, sequence (Q9H3R0 whole entry, the tested form may be a part): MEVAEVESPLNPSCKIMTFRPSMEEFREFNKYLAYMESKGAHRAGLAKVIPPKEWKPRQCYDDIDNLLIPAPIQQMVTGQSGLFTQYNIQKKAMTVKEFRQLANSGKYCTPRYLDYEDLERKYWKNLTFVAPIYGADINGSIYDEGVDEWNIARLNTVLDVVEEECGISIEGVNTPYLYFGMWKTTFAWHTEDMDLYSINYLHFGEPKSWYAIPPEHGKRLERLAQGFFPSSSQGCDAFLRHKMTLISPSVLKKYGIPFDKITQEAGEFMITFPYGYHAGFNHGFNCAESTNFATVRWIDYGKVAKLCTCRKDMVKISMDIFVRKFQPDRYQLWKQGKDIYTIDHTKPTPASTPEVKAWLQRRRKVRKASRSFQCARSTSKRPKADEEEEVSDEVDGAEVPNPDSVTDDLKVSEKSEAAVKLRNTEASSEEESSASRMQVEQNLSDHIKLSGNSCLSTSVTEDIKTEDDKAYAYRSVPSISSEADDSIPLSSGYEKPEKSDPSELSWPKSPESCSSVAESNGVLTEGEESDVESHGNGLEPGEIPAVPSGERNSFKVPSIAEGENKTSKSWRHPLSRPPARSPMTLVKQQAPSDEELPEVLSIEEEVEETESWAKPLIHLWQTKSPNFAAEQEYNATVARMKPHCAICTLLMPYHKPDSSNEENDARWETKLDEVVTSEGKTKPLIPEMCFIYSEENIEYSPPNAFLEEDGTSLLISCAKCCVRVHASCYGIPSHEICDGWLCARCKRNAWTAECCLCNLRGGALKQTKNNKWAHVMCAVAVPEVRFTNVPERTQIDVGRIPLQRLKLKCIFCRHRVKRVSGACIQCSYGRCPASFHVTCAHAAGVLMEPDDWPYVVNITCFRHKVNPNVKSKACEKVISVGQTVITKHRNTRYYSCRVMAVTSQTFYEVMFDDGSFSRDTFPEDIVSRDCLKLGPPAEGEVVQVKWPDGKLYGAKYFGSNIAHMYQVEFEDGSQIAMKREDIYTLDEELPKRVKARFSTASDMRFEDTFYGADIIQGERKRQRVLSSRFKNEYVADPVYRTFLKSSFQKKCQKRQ
Cytochrome P450 2C19, sequence (P33261 whole entry): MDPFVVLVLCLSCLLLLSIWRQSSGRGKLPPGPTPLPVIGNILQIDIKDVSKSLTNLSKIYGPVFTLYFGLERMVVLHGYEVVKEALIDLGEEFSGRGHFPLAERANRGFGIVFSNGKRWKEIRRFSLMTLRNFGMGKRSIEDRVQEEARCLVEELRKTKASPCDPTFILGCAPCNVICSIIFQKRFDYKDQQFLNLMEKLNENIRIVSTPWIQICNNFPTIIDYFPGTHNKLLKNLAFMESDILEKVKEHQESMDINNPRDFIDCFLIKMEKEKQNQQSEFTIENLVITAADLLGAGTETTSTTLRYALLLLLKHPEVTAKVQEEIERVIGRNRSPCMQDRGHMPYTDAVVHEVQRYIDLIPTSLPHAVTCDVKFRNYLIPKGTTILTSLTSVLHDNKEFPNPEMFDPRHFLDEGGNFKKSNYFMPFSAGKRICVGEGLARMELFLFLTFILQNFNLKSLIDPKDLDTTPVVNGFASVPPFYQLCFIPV

O=C(c1ccco1)N1CCN(c2nc(C3CC3)nc3sc4c(c23)CCCC4)CC1
EC50 [1]: > 32 µM (inactive)
IC50 [2]: > 32 µM (inactive)
IC50 [3]: 1.74 µM (active)
EC50 (Protein RecA): 29.6 µM (active)
IC50 (Cannabinoid receptor 1 [4]): > 32 µM (inactive)
IC50 (Cannabinoid receptor 2 [5]): > 32 µM (inactive)
EC50 (Cannabinoid receptor 2 [6]): > 32 µM (inactive)
EC50 (Cannabinoid receptor 1 [7]): > 32 µM (inactive)
AC50 [8]: 2.35 µM (active)

C=CCN1C(=O)NC(=O)/C(=C/c2ccc(OC)c(CSc3ccccn3)c2)C1=O
AC50 [9]: 40.1 µM (active)
EC50 [10]: > 300 µM (not active)
EC50 [11]: > 300 µM (not active)

Cc1sc(NC(=O)c2ccc(OCC(C)C)cc2)c(C(N)=O)c1-c1ccc(Cl)cc1Cl
EC50 [12]: 18.5 µM (active)
EC50 [13]: 48.2 µM (active)
AC50 (Cytochrome P450 2C19): 1.78 µM (inconclusive)
AC50 (Cytochrome P450 3A4): inconclusive

CC(C)C[C@H](NC(=O)c1[nH]cnc1C(=O)NCc1ccccc1)C(=O)OCc1ccccc1
EC50 [14]: 14.4 µM (not active)
EC50 [15]: 3.55 µM (active)
EC50 (Streptococcus): 20.5 µM (active)
EC50 (Streptokinase A): > 150 µM (not active)
EC50 [16]: > 49.8 µM (inactive)
